Results: publication PMC10276812, “Cannabidiol inhibits Nav channels through two distinct binding sites” (Nature Communications, 2023)

Legend:
Format in all cases: cell-based
Nav1.7 [1] = biological target: T1, Nav1.7 (Homo sapiens, UniProt Q15858, N1459A); assay: whole-cell patch clamp in transfected HEK293T cells
T1 construct: gene SCN9A

Nav1.7 [2] = biological target: T2, Nav1.7 (Homo sapiens, UniProt Q15858); assay: cryo-EM structure at […] Å; Kd for the inactivated state calculated from patch-clamp (alpha subunit alone)
T2 construct: gene SCN9A; no beta subunit stated for this line

Nav1.7 [3] = biological target: T3, Nav1.7 (Homo sapiens, UniProt Q15858, V383A); assay: whole-cell patch clamp in transfected HEK293T cells
T3 construct: gene SCN9A

Nav1.7 [4] = biological target: T4, Nav1.7 (Homo sapiens, UniProt Q15858, N1459A/S1320A); assay: as above
T4 construct: gene SCN9A

Nav1.7 [5] = biological target: T5, Nav1.7 (Homo sapiens, UniProt Q15858, S1320A); assay: as above
T5 construct: gene SCN9A

Nav1.7 [6] = biological target: T6, Nav1.7 (Homo sapiens, UniProt Q15858, F387A); assay: as above
T6 construct: gene SCN9A
T6 sequence (Q15858 whole entry F387A): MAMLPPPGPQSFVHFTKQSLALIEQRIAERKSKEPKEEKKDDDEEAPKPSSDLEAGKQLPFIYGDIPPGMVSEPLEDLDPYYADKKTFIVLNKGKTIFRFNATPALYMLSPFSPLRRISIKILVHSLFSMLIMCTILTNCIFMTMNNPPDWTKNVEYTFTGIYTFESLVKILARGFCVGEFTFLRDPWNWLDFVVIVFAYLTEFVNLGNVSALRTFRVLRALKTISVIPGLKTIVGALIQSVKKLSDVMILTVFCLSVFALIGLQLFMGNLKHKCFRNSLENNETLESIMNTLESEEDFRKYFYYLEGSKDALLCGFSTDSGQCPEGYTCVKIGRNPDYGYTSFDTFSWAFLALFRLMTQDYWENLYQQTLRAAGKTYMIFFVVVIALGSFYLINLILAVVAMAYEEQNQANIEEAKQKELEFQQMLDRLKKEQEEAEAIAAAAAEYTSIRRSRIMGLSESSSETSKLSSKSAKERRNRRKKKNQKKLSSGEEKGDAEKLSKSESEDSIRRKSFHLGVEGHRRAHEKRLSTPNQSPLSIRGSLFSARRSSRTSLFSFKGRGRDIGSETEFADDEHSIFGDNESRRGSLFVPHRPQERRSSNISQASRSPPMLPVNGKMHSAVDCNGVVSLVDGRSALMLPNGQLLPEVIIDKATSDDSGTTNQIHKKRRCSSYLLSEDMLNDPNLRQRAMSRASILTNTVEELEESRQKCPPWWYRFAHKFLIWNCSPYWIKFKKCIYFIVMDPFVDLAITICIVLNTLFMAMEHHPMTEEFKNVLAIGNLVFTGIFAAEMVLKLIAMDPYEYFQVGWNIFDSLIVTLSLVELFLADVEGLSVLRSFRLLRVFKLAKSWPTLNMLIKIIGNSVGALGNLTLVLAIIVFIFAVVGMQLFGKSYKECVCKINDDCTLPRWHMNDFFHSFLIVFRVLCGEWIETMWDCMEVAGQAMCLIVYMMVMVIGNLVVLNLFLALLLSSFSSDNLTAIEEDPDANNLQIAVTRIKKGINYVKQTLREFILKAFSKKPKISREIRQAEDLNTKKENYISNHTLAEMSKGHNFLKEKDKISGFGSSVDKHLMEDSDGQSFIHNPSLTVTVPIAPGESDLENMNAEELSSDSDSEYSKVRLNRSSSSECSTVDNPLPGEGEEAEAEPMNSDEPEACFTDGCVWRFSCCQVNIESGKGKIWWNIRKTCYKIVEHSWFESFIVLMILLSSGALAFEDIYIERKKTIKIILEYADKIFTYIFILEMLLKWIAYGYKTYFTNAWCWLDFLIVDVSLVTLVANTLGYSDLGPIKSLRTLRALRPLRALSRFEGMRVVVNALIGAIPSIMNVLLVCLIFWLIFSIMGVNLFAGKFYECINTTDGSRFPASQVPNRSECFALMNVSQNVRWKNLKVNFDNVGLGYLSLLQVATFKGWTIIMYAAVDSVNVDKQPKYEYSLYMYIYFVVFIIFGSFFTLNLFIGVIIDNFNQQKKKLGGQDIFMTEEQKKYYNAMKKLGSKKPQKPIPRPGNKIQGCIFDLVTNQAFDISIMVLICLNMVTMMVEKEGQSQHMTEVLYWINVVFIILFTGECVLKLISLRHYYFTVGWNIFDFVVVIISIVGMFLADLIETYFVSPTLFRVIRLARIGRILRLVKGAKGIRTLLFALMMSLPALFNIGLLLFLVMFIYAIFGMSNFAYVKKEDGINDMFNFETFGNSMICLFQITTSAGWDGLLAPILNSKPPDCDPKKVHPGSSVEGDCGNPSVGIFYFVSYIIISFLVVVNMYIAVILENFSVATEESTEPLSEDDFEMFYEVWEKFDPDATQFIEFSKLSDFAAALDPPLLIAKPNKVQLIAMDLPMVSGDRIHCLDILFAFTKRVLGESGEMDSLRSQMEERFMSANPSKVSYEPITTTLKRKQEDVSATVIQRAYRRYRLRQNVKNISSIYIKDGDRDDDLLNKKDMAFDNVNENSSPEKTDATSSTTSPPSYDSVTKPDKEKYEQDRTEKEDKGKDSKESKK

T1 sequence (Q15858 whole entry N1459A): as the sequence (Q15858 whole entry F387A) above, with A387F, N1459A counted along it
T4 sequence (Q15858 whole entry S1320A/N1459A): as the sequence (Q15858 whole entry F387A) above, with A387F, S1320A, N1459A counted along it
T5 sequence (Q15858 whole entry S1320A): as the sequence (Q15858 whole entry F387A) above, with A387F, S1320A counted along it
T2 sequence (Q15858 whole entry): as the sequence (Q15858 whole entry F387A) above, with A387F counted along it
T3 sequence (Q15858 whole entry V383A): as the sequence (Q15858 whole entry F387A) above, with V383A, A387F counted along it

C=C(C)[C@@H]1CCC(C)=C[C@H]1c1c(O)cc(CCCCC)cc1O [CBD, Cannabidiol] gave an IC50 (Nav1.7 [1]) of 2.46 ± 0.28 µM, a Kd (Nav1.7 [2]) of about 0.05 µM and an IC50 (Nav1.7 [3]) of 3.56 ± 0.58 µM. For the same compound, the IC50 (Nav1.7 [4]) was 4.28 ± 0.67 µM, the IC50 (Nav1.7 [5]) was 3.81 ± 0.42 µM and the IC50 (Nav1.7 [6]) was 3.65 ± 0.78 µM.
